The source of these data is US8828908B2, “Herbicidally active bicyclic 1,3-dione compounds” (Syngenta Limited, priority 2007, dated 2014).

Format in all cases: in vivo
The subject of experiment [1] is Amaranthus retroflexus (AMARE). Briefly: Example A post-emergence herbicidal glasshouse test. The note with it: 312 h, evaluated after 13 days, 100=total damage to plant, 0=no damage. The protocol:
(§1) Seeds of a variety of test species were sown in standard soil in pots. After cultivation for one day (pre-emergence) or after 8 days cultivation (post-emergence) under controlled conditions in a glasshouse (at 24/16° C., day/night; 14 hours light; 65% humidity), the plants were sprayed with an aqueous spray solution derived from the formulation of the technical active ingredient in acetone/water (50:50) solution containing 0.5% Tween 20 (polyoxyethelyene sorbitan monolaurate, CAS RN 9005-64-5). The test plants were then grown in a glasshouse under controlled conditions in a glasshouse (at 24/16° C., day/night; 14 hours light; 65% humidity) and watered twice daily. After 13 days for pre and post-emergence, the test was evaluated (100=total damage to plant; 0=no damage to plant).
(§2) Alopecurus myosuroides (ALOMY), Avena fatua (AVEFA), Setaria faberi (SETFA), Echinochloa crus-galli (ECHCG), Solanum nigrum (SOLNI) and Amaranthus retroflexus (AMARE)

Experiment [2] deals with Avena fatua (AVEFA). The description is as above. Particulars: 312 h, evaluated after 13 days, 100=total damage to plant, 0=no damage. On the procedure: as §1, §2
For experiment [3], the system named is Echinochloa crus-galli (ECHCG). The experiment is described as above. Particulars: 312 h, evaluated after 13 days, 100=total damage to plant, 0=no damage. On the procedure: as §1, §2
Experiment [4] relates to Alopecurus myosuroides (ALOMY). The experiment is described as above. The note with it: 312 h, evaluated after 13 days, 100=total damage to plant, 0=no damage. On the procedure:
as §1, §2

The subject of experiment [5] is Setaria faberi (SETFA). The description is as above. The note with it: 312 h, evaluated after 13 days, 100=total damage to plant, 0=no damage. The protocol:
as §1, §2

The subject of experiment [6] is Amaranthus retroflexus (AMARE). As to the kind of experiment: Example A pre-emergence herbicidal glasshouse test. Particulars: 312 h, Rate 250 g/ha, evaluated after 13 days, 100=total damage to plant, 0=no damage to plant. On the procedure:
as §1, §2

Experiment [7] deals with Avena fatua (AVEFA). Briefly: Example A pre-emergence herbicidal glasshouse test. The note with it: 312 h, Rate 250 g/ha, evaluated after 13 days, 100=total damage to plant, 0=no damage to plant. The protocol:
as §1, §2

In experiment [8] the test system is Echinochloa crus-galli (ECHCG). As to the kind of experiment: Example A pre-emergence herbicidal glasshouse test. The note with it: 312 h, Rate 250 g/ha, evaluated after 13 days, 100=total damage to plant, 0=no damage to plant. The protocol:
as §1, §2

The test system of experiment [9] is Alopecurus myosuroides (ALOMY). Briefly: Example A pre-emergence herbicidal glasshouse test. Particulars: 312 h, Rate 250 g/ha, evaluated after 13 days, 100=total damage to plant, 0=no damage to plant. The protocol:
as §1, §2

Experiment [10] deals with Setaria faberi (SETFA). Briefly: Example A pre-emergence herbicidal glasshouse test. Particulars: 312 h, Rate 250 g/ha, evaluated after 13 days, 100=total damage to plant, 0=no damage to plant. On the procedure:
as §1, §2

As to `Cc1ccc(-c2cccc(Cl)c2C)cc1C1=C(O)[C@H]2CC[C@H](C2)C1=O` (single isomer, unassigned) [Compound T48], the pest or weed control – broadly, how far the test organism was held down – at 250 g/ha came out at 0% in [1]; 20% in the experiment on Avena fatua (AVEFA) [2]; 40% in experiment [3]; 0% in experiment [4]; 40% with Setaria faberi (SETFA) [5]; 0% in experiment [6]. Further, the pest or weed control at 250 g/ha (in the experiment with Avena fatua (AVEFA) [7]; in [8]; in experiment [9]; with Setaria faberi (SETFA) [10]) was 0% throughout.

In the case of `Cc1ccc(-c2ccc(C)c(C3=C(O)[C@H]4CC[C@H](C4)C3=O)c2)cc1Cl` (single isomer, unassigned) [Compound T49], the pest or weed control at 250 g/ha is 0% in experiment [1]; 0% in the experiment with Avena fatua (AVEFA) [2]; 30% in experiment [3]; 0% in experiment [4]; 30% in the experiment with Setaria faberi (SETFA) [5]; 0% in experiment [6]. The pest or weed control at 250 g/ha with Avena fatua (AVEFA) [7] amounted to 0%; in experiment [8], 30%; in experiment [9], 0%; with Setaria faberi (SETFA) [10] it was 0%.

In the case of `Cc1ccc(-c2cc(Cl)ccc2C)cc1C1=C(O)[C@H]2CC[C@H](C2)C1=O` (single isomer, unassigned) [Compound T50], the pest or weed control at 250 g/ha in experiment [1] is 0%; in the experiment with Avena fatua (AVEFA) [2] it was 0%; in experiment [3] it was 30%; in [4], 0%; with Setaria faberi (SETFA) [5], 0%; in experiment [6], 0%. Besides, the pest or weed control at 250 g/ha (in the experiment on Avena fatua (AVEFA) [7]; in experiment [8]; in experiment [9]; in the experiment with Setaria faberi (SETFA) [10]) was 0% each time.

For the molecule `Cc1ccc(-c2cc(Cl)ccc2Cl)cc1C1=C(O)[C@H]2CC[C@H](C2)C1=O` (single isomer, unassigned) [Compound T51], the pest or weed control at 250 g/ha (in experiment [1]; in the experiment on Avena fatua (AVEFA) [2]; in [3]; in [4]; in the experiment on Setaria faberi (SETFA) [5]; in [6]) was 0% in each case. Also, the pest or weed control at 250 g/ha (in the experiment on Avena fatua (AVEFA) [7]; in [8]; in [9]; in the experiment on Setaria faberi (SETFA) [10]) was 0% each time.

Take `Cc1cc(-c2ccccc2)ccc1C1=C(O)[C@H]2CC[C@H](C2)C1=O` (single isomer, unassigned) [Compound T58]: the pest or weed control at 250 g/ha in [1] worked out at 0%; with Avena fatua (AVEFA) [2], 0%; in experiment [3] it was 70%; in experiment [4] it was 60%; with Setaria faberi (SETFA) [5], 100%; in experiment [6] it was 30%. For the same molecule, the pest or weed control at 250 g/ha with Avena fatua (AVEFA) [7] stood at 0%; in experiment [8] it was 40%; in experiment [9], 10%; in the experiment with Setaria faberi (SETFA) [10] it was 20%.

Consider `CCc1cc(-c2ccc(C)cc2)ccc1C1=C(O)[C@H]2CC[C@H](C2)C1=O` (single isomer, unassigned) [Compound T60], for which the pest or weed control at 250 g/ha in [1] was 0%; with Avena fatua (AVEFA) [2], 50%; in experiment [3] it was 100%; in [4], 90%; in the experiment with Setaria faberi (SETFA) [5] it was 100%; in experiment [6], 0%. The pest or weed control at 250 g/ha in the experiment on Avena fatua (AVEFA) [7] is 30%; in [8], 100%; in [9], 60%; in the experiment on Setaria faberi (SETFA) [10], 100%.

For the molecule `CCc1ccc(-c2cnc(Cl)cc2C)cc1C1=C(O)[C@H]2CC[C@H](C2)C1=O` (single isomer, unassigned) [Compound T77], the pest or weed control at 250 g/ha in [1] is 0%; in the experiment with Avena fatua (AVEFA) [2], 0%; in [3] it was 80%; in [4], 30%; in the experiment on Setaria faberi (SETFA) [5], 90%; in [6], 0%. The pest or weed control at 250 g/ha with Avena fatua (AVEFA) [7] turned out to be 0%; in experiment [8], 0%; in experiment [9] it was 0%; in the experiment on Setaria faberi (SETFA) [10] it was 30%.

Take `CCc1ccc(-c2ccc(Cl)nc2)cc1C1=C(O)[C@H]2CC[C@H](C2)C1=O` (single isomer, unassigned) [Compound T78]: the pest or weed control at 250 g/ha is 0% in experiment [1]; 60% with Avena fatua (AVEFA) [2]; 100% in [3]; 70% in experiment [4]; 100% with Setaria faberi (SETFA) [5]; 0% in experiment [6]. For the same molecule, the pest or weed control at 250 g/ha came to 30% with Avena fatua (AVEFA) [7], 60% in experiment [8], 40% in experiment [9] and 90% in the experiment on Setaria faberi (SETFA) [10].

As for `CCc1ccc(-c2ccc(Cl)nc2C)cc1C1=C(O)[C@H]2CC[C@H](C2)C1=O` (single isomer, unassigned) [Compound T79], the pest or weed control at 250 g/ha stood at 0% in experiment [1]; 20% with Avena fatua (AVEFA) [2]; 90% in experiment [3]; 40% in experiment [4]; 100% with Setaria faberi (SETFA) [5]; 0% in experiment [6]. The pest or weed control at 250 g/ha with Avena fatua (AVEFA) [7] is 0%; in experiment [8], 0%; in experiment [9], 0%; in the experiment with Setaria faberi (SETFA) [10] it was 70%.

For `CCc1ccc(-c2ccc(Cl)nc2Cl)cc1C1=C(O)[C@H]2CC[C@H](C2)C1=O` (single isomer, unassigned) [Compound T80], the pest or weed control at 250 g/ha in experiment [1] was found to be 0%; in the experiment with Avena fatua (AVEFA) [2], 70%; in experiment [3] it was 90%; in experiment [4], 70%; in the experiment on Setaria faberi (SETFA) [5] it was 100%; in [6], 0%. The pest or weed control at 250 g/ha in the experiment on Avena fatua (AVEFA) [7] was 50%; in experiment [8] it was 90%; in experiment [9] it was 30%; with Setaria faberi (SETFA) [10], 100%.

`Cc1ccc(-c2ccc(Cl)nc2)cc1C1=C(O)[C@H]2CC[C@H](C2)C1=O` (single isomer, unassigned) [Compound T81]: the pest or weed control at 250 g/ha in experiment [1] stood at 0%; in the experiment with Avena fatua (AVEFA) [2], 70%; in experiment [3] it was 80%; in experiment [4], 50%; in the experiment on Setaria faberi (SETFA) [5] it was 90%; in experiment [6] it was 20%. Moreover, the pest or weed control at 250 g/ha in the experiment on Avena fatua (AVEFA) [7] stood at 40%; in experiment [8], 50%; in experiment [9], 30%; in the experiment on Setaria faberi (SETFA) [10], 70%.

For the molecule `CCOc1ccc(-c2ccc(Cl)cc2)cc1C1=C(O)[C@H]2CC[C@H](C2)C1=O` [Compound T52], the pest or weed control at 250 g/ha was determined as 0% in experiment [1]; 0% in the experiment with Avena fatua (AVEFA) [2]; 80% in experiment [3]; 40% in experiment [4]; 90% in the experiment with Setaria faberi (SETFA) [5]; 0% in [6]. For the same molecule, the pest or weed control at 250 g/ha (in the experiment on Avena fatua (AVEFA) [7]; in experiment [8]; in experiment [9]; in the experiment on Setaria faberi (SETFA) [10]) was 0% throughout.

Take `COc1ccc(-c2ccc(Cl)cc2Cl)cc1C1=C(O)[C@H]2CC[C@H](C2)C1=O` [Compound T53]: the pest or weed control at 250 g/ha was 0% in experiment [1]; 0% in the experiment on Avena fatua (AVEFA) [2]; 30% in experiment [3]; 0% in [4]; 80% in the experiment with Setaria faberi (SETFA) [5]; 0% in experiment [6]. For the same molecule, the pest or weed control at 250 g/ha (in the experiment with Avena fatua (AVEFA) [7]; in [8]; in experiment [9]; in the experiment on Setaria faberi (SETFA) [10]) was 0% in each case.

Turning to `CCc1ccc(-c2ccc(Cl)cc2Cl)cc1C1=C(O)[C@H]2C=C[C@H](CC2)C1=O` [Compound T56], the pest or weed control at 250 g/ha in [1] worked out at 10%; in the experiment with Avena fatua (AVEFA) [2], 70%; in experiment [3], 100%; in experiment [4] it was 60%; in the experiment on Setaria faberi (SETFA) [5], 100%; in experiment [6], 60%. In addition, the pest or weed control at 250 g/ha came to 0% with Avena fatua (AVEFA) [7], 30% in [8], 10% in [9] and 50% in the experiment with Setaria faberi (SETFA) [10].
